# Reference: patent US8710045B2, “Agents for preventing and treating disorders involving modulation of the ryanodine receptors” (The Trustees of Columbia University in the City of New York, priority 2004, dated 2014)
# Columns and labels:
# [1] = tested on: L-type calcium channel current; assay: S107 specificity: L-type calcium channel current; conditions: 500 nM
# [2] = molecular target: hERG potassium current (Homo sapiens, UniProt Q12809); assay: S107 specificity: hERG potassium current; conditions: 500 nM
# [3] = tested on: C57BL/6J mice; assay: S107 chronic exercise model: treadmill run to exhaustion; assay type: in vivo, mouse
# Protocol: Mice were allowed to recover for three days prior to the initiation of exercise. Standard food and water were provided ad libitum through the experiment.
# Chronic Exercise Model: The daily swimming protocol consisted of twice-daily swimming sessions separated by a one-hour rest period. After an initial conditioning regimen lasting 5 days during which the swimming sessions were increased in 10 minute increments from 40 minutes each to 80 minutes each, the swimming sessions thereafter lasted 90 minutes each. A 30 cm wide by 30 cm long opaque acrylic tank was filled with tap water to a depth of at least 20 cm. Water was circulated and warmed to 32-34° C. using a separate reservoir with heating element, thermostat, and pump. 8 mice, balanced pair-wise with respect to genotype and/or treatment group, swam at any one time in the tank.
# Treadmill performance: A Columbus Instruments (Columbus, Ohio) treadmill (Model: Exer-6M Treadmill with Treadmill Shock Detection Unit) with 6 lanes was used to run the mice. Mice were placed in their respective lanes with the shocking apparatus turned off and allowed to adjust to the surroundings for 10 minutes. The forward half of the treadmill was covered with aluminum foil to block out light and a desk lamp illuminated the shocking area at the rear of the treadmill. After the adjustment period, the treadmill was set to 10 meters/min, and the mice were trained to run with gentle prodding for 6 minutes. The electric current was then turned on, and the number of shocks delivered during the next two three minute intervals (training period) were recorded. The shock counter was then reset and visits to the shocking area and shocks delivered to each mouse were recorded at three-minute intervals until the end of the experiment. At regular intervals, the speed of the treadmill was ramped up from the initial 10 m/min to 24 m/min. The speed was increased no more than 2 m/min every 6 minutes. Task failure was defined when a mouse could not continue running despite gentle prodding.
# Age and sex-matched WT mice were randomized to receive osmotic pumps containing either S107 or vehicle. […] Exercise capacity was assessed once a week by a level treadmill run to exhaustion during the nocturnal cycle of the mouse. The mice were not exercised on the same day as treadmill assessments. […] These studies are complicated by the training effect of repeated exercise which leads to improved performance due to enhanced musculature. Isometric force production was measured in EDL muscles in a tissue bath during field stimulation.
# [4] = tested on: RyR; assay: RyR immunoprecipitation from whole brain microsomes of exercised mice; assay type: in vivo, mouse; conditions: 21 days
# Protocol: Tissue lysates were prepared by homogenizing the tissue (e.g., brain, cardiac, muscle) with Tissuemiser in 0.7 ml lysis buffer (pH 7.4, 10 mM HEPES, 1 mM EDTA, 20 mM NaF, 2 mM Na3 VO4, 320 mM sucrose, and protease inhibitors) and centrifuged for 15 min at 4,000×g at 4° C. The supernatant was then centrifuged for 15 min at 10,000×g at 4° C. For brain homogenates, the supernatant was centrifuged at 50,000×g at 4° C. for 30 minutes, and the pellet (microsomes) was resuspended in homogenization buffer which was supplemented with 0.9% NaCl. For brain tissue, the resuspended pellet was used for immunoprecipitation of RyR. For cardiac and muscle tissue homogenates, the supernatant of the 10,000×g spin was used for immunoprecipitation of the RyR. Protein concentrations were measured by Bradford protein assay. The sample was frozen at −80° C. until use.
# 100 μg of microsomes were brought to a volume of 500 μl with modified RIP A buffer (50 mM Tris-HCl (PH 7.4), 0.9% NaCl, 5.0 mM NaF, 1.0 mM Na3VO4, 0.5% TritonX100, and protease inhibitors). […] The sample was incubated with 40 μl of Protein A Sepharose beads and rotated for 1 hr at 4° C. […]
# Ryanodine receptor (types 1 and 2) was immunoprecipitated from whole brain microsomes. Immunoprecipitates were separated by 4-20% PAGE and analyzed for total RyR, PKA phosphorylated RyR, and calstabin.
# [5] = molecular target: T1, PKA-phosphorylated RyR2 (Homo sapiens, UniProt Q92736); assay: FKBP12.6 rebinding assay: FKBP12.6 binding to PKA-phosphorylated RyR2 in cardiac SR
# T1 construct: from tissue
# [6] = tested on: Wild-type mice; assay: Chronic heart failure after myocardial infarction (LAD ligation) in wild-type mice; assay type: in vivo, mouse; conditions: plasma concentration 200 nM, vs placebo
# Protocol: Wild-type mice are subjected to permanent ligation of the left anterior descending coronary artery resulting in myocardial infarction. Seven days following myocardial infartion, mice are treated with S36 (plasma concentration 200 nM) or placebo.
# [7] = molecular target: T2, RyR1 (Mus musculus, UniProt E9PZQ0); assay: RyR1 immunoprecipitation from soleus muscle after 21 days of exercise, calstabin1 western blot; assay type: in vivo; conditions: subcutaneous mini-osmotic pump
# T2 construct: RyR1 was immunoprecipitated from soleus muscle homogenates of mice following 21 days of exercise; from tissue; host or cells: mouse hind-limb skeletal muscle (soleus, EDL; SR microsomes for bilayer recording)
# Protocol: RyR1 was immunoprecipitated from soleus muscle homogenates of mice following 21 days of exercise with or without simultaneous subcutaneous mini-osmotic pump treatment with S36 and then western blotted back for RyR1, phospho-epitope specific RyR1-pS2844, and calstabin1 bound to the RyR1 macromolecular complex.
# The samples were incubated with protein A Sepharose beads (Amersham Pharmacia) at 4° C. for 1 h, after which the beads were washed three times with buffer. Proteins were separated on SDS PAGE gels (6% for RyR2 and 15% for calstabin2) and transferred onto nitrocellulose membranes overnight (SemiDry transfer blot, Bio-Rad). After incubation with 5% nonfat milk to prevent non-specific antibody binding and a wash in Tris-buffered saline with 0.1% Tween-20, membranes were incubated for 1-2 h at room temperature with primary antibodies anti-calstabin (1:1,000), anti-RyR (5029; 1:5,000), or anti-phospho-RyR2-pSer2809 (1:5,000), which detects PKA-phosphorylated mouse RyR1-pSer2844 and RyR2-pSer2808. After three washes, membranes were incubated with horseradish peroxidase-labeled anti-rabbit IgG (1:5,000, Transduction Laboratories, Lexington, Ky.), and developed with an enhanced chemiluminescent detection system (Amersham Pharmacia). Band densities were quantified by using QUANTITY ONE software (Bio-Rad).
# T1 sequence (Q92736 whole entry): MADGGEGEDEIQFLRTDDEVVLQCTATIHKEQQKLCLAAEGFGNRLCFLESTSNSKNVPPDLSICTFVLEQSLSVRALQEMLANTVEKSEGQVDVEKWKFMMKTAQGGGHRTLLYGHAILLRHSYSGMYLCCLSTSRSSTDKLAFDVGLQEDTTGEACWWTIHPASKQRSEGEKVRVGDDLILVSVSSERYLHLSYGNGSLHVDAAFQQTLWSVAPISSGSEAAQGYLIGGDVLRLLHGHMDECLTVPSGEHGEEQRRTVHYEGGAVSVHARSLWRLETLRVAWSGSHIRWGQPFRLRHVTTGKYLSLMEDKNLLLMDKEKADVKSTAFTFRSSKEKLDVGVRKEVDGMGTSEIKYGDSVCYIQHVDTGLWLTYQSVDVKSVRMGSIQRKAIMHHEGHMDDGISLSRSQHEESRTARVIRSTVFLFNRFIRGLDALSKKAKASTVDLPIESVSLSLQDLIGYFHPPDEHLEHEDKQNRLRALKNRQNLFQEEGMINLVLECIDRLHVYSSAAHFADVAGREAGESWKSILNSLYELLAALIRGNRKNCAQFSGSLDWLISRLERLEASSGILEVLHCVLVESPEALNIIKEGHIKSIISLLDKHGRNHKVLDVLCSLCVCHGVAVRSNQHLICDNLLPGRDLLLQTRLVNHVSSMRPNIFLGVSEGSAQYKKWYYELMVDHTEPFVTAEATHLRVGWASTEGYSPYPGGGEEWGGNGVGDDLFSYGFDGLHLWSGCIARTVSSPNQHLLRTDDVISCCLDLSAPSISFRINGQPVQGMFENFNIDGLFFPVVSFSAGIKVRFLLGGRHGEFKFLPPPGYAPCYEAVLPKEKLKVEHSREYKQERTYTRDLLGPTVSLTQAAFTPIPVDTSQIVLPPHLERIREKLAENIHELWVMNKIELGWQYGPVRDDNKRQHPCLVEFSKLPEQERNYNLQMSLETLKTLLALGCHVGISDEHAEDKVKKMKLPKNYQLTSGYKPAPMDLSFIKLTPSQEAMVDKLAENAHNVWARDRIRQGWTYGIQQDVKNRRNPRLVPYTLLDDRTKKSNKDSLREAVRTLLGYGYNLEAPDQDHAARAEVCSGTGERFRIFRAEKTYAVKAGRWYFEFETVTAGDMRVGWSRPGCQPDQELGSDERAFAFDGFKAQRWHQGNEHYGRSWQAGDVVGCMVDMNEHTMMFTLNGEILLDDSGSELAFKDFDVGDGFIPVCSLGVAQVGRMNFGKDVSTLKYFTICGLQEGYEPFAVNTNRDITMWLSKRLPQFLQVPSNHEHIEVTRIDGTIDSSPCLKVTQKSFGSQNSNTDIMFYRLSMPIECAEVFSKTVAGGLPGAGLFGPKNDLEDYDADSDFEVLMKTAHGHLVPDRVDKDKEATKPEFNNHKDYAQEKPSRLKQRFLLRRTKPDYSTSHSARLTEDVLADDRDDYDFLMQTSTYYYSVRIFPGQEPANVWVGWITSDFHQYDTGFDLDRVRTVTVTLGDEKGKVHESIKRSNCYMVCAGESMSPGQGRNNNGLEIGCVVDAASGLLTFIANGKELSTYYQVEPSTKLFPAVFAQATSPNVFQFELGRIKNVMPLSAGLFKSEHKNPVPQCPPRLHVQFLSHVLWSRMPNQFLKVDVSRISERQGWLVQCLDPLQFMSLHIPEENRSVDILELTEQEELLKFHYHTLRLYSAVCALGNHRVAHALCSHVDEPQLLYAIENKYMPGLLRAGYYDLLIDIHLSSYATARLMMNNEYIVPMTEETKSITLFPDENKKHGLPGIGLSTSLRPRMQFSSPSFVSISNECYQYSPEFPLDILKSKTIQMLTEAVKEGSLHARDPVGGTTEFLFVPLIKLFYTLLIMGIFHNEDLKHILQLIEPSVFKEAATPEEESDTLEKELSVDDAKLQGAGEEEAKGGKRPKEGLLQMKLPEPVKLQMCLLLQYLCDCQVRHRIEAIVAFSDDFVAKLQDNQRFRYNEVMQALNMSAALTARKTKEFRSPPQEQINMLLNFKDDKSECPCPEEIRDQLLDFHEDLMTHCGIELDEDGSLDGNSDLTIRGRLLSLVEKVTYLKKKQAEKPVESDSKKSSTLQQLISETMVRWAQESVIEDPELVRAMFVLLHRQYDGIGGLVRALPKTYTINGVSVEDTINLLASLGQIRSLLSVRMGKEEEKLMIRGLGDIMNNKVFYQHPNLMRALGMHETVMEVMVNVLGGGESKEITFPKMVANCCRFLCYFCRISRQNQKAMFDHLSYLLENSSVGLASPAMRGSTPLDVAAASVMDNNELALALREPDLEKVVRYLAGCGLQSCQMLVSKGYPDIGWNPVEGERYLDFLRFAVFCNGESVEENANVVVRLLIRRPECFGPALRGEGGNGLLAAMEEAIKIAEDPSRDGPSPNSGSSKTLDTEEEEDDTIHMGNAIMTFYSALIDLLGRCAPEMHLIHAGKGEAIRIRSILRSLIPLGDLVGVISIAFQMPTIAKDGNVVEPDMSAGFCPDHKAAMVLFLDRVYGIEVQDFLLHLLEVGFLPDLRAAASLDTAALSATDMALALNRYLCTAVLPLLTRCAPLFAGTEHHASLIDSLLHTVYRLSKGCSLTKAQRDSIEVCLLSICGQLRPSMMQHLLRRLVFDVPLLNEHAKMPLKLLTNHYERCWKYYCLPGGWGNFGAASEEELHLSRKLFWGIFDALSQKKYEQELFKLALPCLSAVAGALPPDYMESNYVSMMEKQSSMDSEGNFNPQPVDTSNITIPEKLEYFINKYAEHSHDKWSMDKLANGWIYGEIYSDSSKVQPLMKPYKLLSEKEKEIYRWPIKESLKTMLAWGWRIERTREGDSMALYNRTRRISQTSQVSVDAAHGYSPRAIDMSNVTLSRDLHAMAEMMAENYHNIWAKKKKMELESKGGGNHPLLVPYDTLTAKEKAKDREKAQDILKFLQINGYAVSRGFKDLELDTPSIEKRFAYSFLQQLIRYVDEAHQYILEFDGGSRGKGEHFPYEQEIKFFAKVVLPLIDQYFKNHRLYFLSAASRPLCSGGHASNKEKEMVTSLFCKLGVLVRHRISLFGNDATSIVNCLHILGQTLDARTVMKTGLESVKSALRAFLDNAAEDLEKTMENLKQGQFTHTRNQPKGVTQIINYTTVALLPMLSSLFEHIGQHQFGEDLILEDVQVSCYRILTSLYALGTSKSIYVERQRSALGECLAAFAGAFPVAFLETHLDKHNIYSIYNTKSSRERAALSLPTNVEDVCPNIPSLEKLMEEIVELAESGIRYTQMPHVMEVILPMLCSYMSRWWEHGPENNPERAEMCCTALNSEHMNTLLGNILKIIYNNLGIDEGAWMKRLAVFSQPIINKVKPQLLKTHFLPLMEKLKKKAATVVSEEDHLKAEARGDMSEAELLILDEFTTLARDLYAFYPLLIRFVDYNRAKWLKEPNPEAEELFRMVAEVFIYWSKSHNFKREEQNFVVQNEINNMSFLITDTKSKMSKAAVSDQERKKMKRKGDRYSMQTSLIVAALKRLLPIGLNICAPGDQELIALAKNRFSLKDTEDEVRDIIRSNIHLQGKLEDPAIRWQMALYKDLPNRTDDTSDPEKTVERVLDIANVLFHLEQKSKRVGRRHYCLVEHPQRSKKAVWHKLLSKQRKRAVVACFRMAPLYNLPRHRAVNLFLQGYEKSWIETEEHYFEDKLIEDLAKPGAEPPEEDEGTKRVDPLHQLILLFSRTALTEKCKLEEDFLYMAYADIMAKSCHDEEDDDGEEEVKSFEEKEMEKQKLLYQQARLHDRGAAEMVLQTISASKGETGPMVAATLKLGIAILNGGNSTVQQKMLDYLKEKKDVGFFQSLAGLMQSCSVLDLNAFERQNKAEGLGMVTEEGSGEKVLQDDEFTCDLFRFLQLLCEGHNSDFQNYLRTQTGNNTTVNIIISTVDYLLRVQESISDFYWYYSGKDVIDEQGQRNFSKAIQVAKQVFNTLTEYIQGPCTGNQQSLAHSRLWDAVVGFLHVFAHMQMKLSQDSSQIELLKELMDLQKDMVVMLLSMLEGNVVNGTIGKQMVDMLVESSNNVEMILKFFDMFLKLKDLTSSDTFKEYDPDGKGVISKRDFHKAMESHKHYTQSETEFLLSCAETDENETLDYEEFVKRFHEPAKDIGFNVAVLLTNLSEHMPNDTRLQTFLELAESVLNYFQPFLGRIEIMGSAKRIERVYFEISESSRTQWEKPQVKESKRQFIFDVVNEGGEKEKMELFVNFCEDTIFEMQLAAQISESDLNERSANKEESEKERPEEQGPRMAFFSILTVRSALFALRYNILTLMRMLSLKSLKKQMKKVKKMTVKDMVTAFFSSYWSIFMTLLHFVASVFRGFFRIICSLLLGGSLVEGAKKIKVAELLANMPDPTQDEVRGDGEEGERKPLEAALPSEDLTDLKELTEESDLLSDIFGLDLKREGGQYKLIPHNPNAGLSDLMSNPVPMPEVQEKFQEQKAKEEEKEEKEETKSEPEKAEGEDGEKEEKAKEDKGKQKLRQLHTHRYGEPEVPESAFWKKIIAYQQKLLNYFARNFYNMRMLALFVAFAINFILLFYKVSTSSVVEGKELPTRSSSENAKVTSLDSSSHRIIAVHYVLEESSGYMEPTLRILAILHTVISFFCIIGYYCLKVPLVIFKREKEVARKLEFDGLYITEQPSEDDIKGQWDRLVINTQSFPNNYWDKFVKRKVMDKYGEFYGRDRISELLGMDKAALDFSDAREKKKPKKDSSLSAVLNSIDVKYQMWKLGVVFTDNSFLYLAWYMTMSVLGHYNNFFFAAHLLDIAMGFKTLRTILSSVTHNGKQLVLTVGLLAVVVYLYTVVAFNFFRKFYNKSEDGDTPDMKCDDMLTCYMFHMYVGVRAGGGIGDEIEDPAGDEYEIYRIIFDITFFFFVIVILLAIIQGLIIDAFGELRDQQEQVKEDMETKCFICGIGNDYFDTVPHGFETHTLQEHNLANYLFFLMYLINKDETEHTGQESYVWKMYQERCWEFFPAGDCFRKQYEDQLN
# T1 sequence (P68106 whole entry partner): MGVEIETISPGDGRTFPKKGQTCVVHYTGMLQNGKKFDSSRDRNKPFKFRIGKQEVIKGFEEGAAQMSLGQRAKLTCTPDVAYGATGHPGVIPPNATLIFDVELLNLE
SMILES,effect on L-type calcium channel current [1],effect on hERG potassium current [2],"acute effect on WT treadmill exercise performance ([3]; 2.5 ug/hr osmotic pump, WT mice)","treadmill exercise capacity (time to failure) vs vehicle ([3]; Day 21, WT mice, p<0.05)",treadmill performance ([3]; mice deficient in calstabin1),body weight ([3]; throughout trial),binding of calstabin to RyR in whole brain microsomes [4],potency at increasing the binding of FKBP12.6 and RyR2 compared with JTV-519 [5],"EC50 ([5]; compound 0.5-1000 nM, Michaelis-Menten curve fitting) [µM]",Heart weight to body weight (HW/BW) ratio [6],pressure-volume loop quantification (dP/dt) [6],calstabin1 bound to RyR1 [7]
COc1ccc2c(c1)CN(C)CCS2 [S107],not to affect,not to affect,no acute effect,relatively protected against a decline in treadmill exercise capacity,failed to improve treadmill performance,did not result in a change,restores the binding of calstabin to RyR,–,–,–,–,–
COc1ccc2c(c1)CN(C(=O)C(=O)O)CCS2 [S36],–,–,–,–,–,–,–,more potent,0.015,reverse remodeling,improved cardiac contractility,allows RyR1 to rebind calstabin1
